Legend:
BTK = BTK (Homo sapiens (Human), UniProt Q06187); assay: KdELECT assay for binding affinity to BTK
Summary of the method: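 Competition binding of test compound against bead-immobilized biotinylated ligand; kinase as T7 phage fusion or HEK-293-expressed DNA-tagged protein. 11-point 3-fold dilution, 0.9% DMSO final, 1 h room temperature with shaking. Bound kinase eluted with 0.5 μM non-biotinylated ligand and quantified by qPCR; Kd derived.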

CDK1 = CDK1 (Homo sapiens (Human), UniProt P06493); assay: KdELECT assay for binding affinity to CDK1
Chain of CDK1 (P06493 whole entry): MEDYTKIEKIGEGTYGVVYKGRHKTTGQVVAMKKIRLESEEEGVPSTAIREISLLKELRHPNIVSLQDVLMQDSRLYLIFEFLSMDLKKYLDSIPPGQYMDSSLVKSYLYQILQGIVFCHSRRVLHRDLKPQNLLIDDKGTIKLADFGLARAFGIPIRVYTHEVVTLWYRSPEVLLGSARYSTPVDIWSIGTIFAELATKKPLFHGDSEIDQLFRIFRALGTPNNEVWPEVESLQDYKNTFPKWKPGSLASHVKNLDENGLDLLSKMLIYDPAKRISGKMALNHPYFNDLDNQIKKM
Method: (§1) Compounds were tested using a KdELECT assay. Kinase-tagged T7 phage strains were prepared in an E. coli host derived from the BL21 strain. E. coli were grown to log-phase and infected with T7 phage and incubated with shaking at 32° C. until lysis. The lysates were centrifuged and filtered to remove cell debris. The remaining kinases were produced in HEK-293 cells and subsequently tagged with DNA for qPCR detection. Streptavidin-coated magnetic beads were treated with biotinylated small molecule ligands for 30 minutes at room temperature to generate affinity resins for kinase assays. The liganded beads were blocked with excess biotin and washed with blocking buffer (SeaBlock (Pierce), 1% BSA, 0.05% Tween 20, 1 mM DTT) to remove unbound ligand and to reduce non-specific binding. Binding reactions were assembled by combining kinases, liganded affinity beads, and test compounds in 1×binding buffer (20% SeaBlock, 0.17×PBS, 0.05% Tween 20, 6 mM DTT). Test compounds were prepared as 111X stocks in 100% DMSO. Kd values were determined using an 11-point 3-fold compound dilution series with three DMSO control points. All compounds for Kd measurements are distributed by acoustic transfer (non-contact dispensing) in 100% DMSO. The compounds were then diluted directly into the assays such that the final concentration of DMSO was 0.9%. All reactions performed in polypropylene 384-well plate. Each was a final volume of 0.02 mL. The assay plates were incubated at room temperature with shaking for 1 hour and the affinity beads were washed with wash buffer (1×PBS, 0.05% Tween 20). The beads were then re-suspended in elution buffer (1×PBS, 0.05% Tween 20, 0.5 μM nonbiotinylated affinity ligand) and incubated at room temperature with shaking for 30 minutes. The kinase concentration in the eluates was measured by qPCR.

androgen receptor = androgen receptor (Homo sapiens, UniProt P10275); assay: Radioligand ([3H]methyltrienolone) assay for binding affinity to androgen receptor; conditions: cell cytosol, 1 nM [3H]methyltrienolone
Chain of androgen receptor (P10275 whole entry, looked up): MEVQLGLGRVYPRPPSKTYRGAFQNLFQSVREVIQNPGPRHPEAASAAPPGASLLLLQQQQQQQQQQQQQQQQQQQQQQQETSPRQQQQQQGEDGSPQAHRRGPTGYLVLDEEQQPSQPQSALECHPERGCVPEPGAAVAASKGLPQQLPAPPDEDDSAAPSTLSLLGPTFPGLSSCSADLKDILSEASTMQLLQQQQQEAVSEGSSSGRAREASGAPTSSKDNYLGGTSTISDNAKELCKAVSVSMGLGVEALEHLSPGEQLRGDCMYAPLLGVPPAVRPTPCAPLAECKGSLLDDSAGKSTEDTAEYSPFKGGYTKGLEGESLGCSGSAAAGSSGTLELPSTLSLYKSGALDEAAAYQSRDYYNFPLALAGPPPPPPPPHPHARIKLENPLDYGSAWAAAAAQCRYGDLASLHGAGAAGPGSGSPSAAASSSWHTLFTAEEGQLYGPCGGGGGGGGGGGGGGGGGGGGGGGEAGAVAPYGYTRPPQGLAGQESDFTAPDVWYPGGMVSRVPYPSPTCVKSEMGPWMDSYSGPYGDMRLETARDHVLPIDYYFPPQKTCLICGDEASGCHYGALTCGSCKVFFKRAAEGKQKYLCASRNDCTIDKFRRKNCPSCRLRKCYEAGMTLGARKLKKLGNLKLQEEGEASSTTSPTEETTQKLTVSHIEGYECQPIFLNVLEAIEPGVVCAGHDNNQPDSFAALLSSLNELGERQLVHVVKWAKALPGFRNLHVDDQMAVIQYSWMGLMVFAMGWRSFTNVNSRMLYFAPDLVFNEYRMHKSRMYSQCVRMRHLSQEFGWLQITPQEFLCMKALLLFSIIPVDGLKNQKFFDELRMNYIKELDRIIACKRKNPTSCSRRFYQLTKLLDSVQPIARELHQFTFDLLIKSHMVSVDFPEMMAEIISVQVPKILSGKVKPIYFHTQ
Method: Fractions of cell cytosol ([…]) were incubated for 24 hr at 4° C. with 1 nM [^3H]methyltrienolone in the absence or presence of the test compound in a buffer containing 25 mM Hepes-Tris (pH 7.4), 1 mM EDTA, 10 mM Na2MoO4, 2 mM DTT, 5 μM triamcinolone acetonide, and 10% glycerol. Nonspecific binding was determined in the presence of 1 μM testosterone. Following incubation, the samples were filtered rapidly under vacuum through glass fiber filters (GF/B, Packard) presoaked with 0.3% PEI and rinsed several times with ice-cold 50 mM Tris —HCl using a 96-sample cell harvester (Unifilter, Packard). The filters were dried then counted for radioactivity in a scintillation counter (Topcount, Packard) using a scintillation cocktail (Microscint 0, Packard). The results are expressed as a percent inhibition of the control radioligand specific binding. The standard reference compound is testosterone, which is tested in each experiment at several concentrations to obtain a competition curve from which its IC50 is calculated.

BRD4-BD1 = BRD4-BD1 (Homo sapiens (Human), UniProt O60885); assay: bromoKdELECT assay for binding affinity to BRD4-BD1
Method: (§2) Compounds were tested using a bromoKdELECT assay. T7 phage strains displaying bromodomains were grown in parallel in 24-well blocks in an E. coli host derived from the BL21 strain. E. coli were grown to log-phase and infected with T7 phage from a frozen stock (multiplicity of infection=0.4) and incubated with shaking at 32° C. until lysis (90-150 minutes). The lysates were centrifuged (5,000×g) and filtered (0.2 μm) to remove cell debris. Streptavidin-coated magnetic beads were treated with biotinylated small molecule or acetylated peptide ligands for 30 minutes at room temperature to generate affinity resins for bromodomain assays. The liganded beads were blocked with excess biotin and washed with blocking buffer (SeaBlock (Pierce), 1% BSA, 0.05% Tween 20, 1 mM DTT) to remove unbound ligand and to reduce nonspecific phage binding. Binding reactions were assembled by combining bromodomains, liganded affinity beads, and test compounds in 1×binding buffer (17% SeaBlock, 0.33×PBS, 0.04% Tween 20, 0.02% BSA, 0.004% Sodium azide, 7.4 mM DTT). Test compounds were prepared as 1000X stocks in 100% DMSO. Kds were determined using an 11-point 3-fold compound dilution series with one DMSO control point. All compounds for Kd measurements are distributed by acoustic transfer (non-contact dispensing) in 100% DMSO. The compounds were then diluted directly into the assays such that the final concentration of DMSO was 0.09%. All reactions performed in polypropylene 384-well plates. Each was a final volume of 0.02 ml. The assay plates were incubated at room temperature with shaking for 1 hour and the affinity beads were washed with wash buffer (1×PBS, 0.05% Tween 20). The beads were then resuspended in elution buffer (1×PBS, 0.05% Tween 20, 2 μM non-biotinylated affinity ligand) and incubated at room temperature with shaking for 30 minutes. The bromodomain concentration in the eluates was measured by qPCR.

BRD4-BD2 = BRD4-BD2 (Homo sapiens (Human), UniProt O60885); assay: bromoKdELECT assay for binding affinity to BRD4-BD2
Method: as §2

PLK1 = PLK1 (Homo sapiens (Human), UniProt P53350); assay: KdELECT assay for binding affinity to PLK1
Chain of PLK1 (P53350 whole entry): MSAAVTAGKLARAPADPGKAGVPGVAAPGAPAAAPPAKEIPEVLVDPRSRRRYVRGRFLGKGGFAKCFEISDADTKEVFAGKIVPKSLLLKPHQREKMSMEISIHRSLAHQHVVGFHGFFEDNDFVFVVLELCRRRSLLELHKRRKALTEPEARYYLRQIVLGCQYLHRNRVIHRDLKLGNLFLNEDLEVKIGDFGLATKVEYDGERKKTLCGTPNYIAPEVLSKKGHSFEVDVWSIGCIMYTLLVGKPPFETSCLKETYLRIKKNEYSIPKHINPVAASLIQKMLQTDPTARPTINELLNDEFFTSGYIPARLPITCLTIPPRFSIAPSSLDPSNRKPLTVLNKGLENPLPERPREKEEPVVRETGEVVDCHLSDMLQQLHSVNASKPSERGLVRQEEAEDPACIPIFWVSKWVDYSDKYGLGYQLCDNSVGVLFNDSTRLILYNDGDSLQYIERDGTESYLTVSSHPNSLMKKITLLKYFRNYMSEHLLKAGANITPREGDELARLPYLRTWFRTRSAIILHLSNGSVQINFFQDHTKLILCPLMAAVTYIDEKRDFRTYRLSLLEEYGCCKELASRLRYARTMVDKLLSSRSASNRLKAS
Method: as §1, with “DMSO.” for “DMSO. The compounds were then diluted directly into the assays such that the final concentration of DMSO was 0.9%. All reactions performed in polypropylene 384-well plate. Each was a final volume of 0.02 mL. The assay plates were incubated at room temperature with shaking for 1 hour and the affinity beads were washed with wash buffer (1×PBS, 0.05% Tween 20). The beads were then re-suspended in elution buffer (1×PBS, 0.05% Tween 20, 0.5 μM nonbiotinylated affinity ligand) and incubated at room temperature with shaking for 30 minutes. The kinase concentration in the eluates was measured by qPCR.”
The compounds were then diluted directly into the assays such that the final concentration of DMSO was 0.9%. […] The kinase concentration in the eluates was measured by qPCR.

KIF11 = KIF11 (Homo sapiens (Human), UniProt P52732); assay: Enzyme-coupled ATPase assay for inhibition of KIF11; format: biochemical; conditions: KIF11 ATPase rate, 1 mM ATP
Chain of KIF11 (P52732 1-368): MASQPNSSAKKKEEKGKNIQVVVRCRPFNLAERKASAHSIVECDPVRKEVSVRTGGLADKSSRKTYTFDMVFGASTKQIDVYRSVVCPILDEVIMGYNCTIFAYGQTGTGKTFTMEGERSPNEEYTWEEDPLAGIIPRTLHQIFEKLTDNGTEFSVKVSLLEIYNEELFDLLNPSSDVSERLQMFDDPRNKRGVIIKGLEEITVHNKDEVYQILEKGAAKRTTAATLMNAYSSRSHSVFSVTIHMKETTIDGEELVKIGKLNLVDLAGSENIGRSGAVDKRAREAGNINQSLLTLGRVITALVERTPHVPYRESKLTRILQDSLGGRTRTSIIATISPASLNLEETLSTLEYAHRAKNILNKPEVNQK
Method: The ATPase rate for Kif11 was monitored using an enzyme-coupled assay. Porcine brain microtubules (Cat #MT002) were purchased from Cytoskeleton (Denver, CO) and polymerized as per manufacturer's instructions and stored at 1 mg/ml at −80° C. GST-tagged Kif11/Eg5 (Cat #EG01-XL) and the Kinesin ELIPA Biochem Kit (Cat #BK060) was also purchased from Cytoskeleton. Taxol, microtubules, 7-methylthioguanosine (MESG), and purine nucleoside phosphorylase (PNP) were added to final concentrations of […], 0.05 mg/mL, […], 1U/m, 1 mM in EPLIA Reaction Buffer and allowed to incubate at room temperature for 15 minutes under rocking. Kif11 was then added at a final concentration of […] and allowed to incubate at room temperature for an additional 15 minutes. Master mix ([…]) was added to a black 384-well plate (Corning 3575), to which […] of DMSO or compound were added to appropriate wells. Plates were incubated at room temperature for 2 hours. ATPase reactions were initiated by addition of 1 mM ATP and monitored by OD340 every 1 minute over the course of 2 hours. The rate of the reaction was taken from the linear part of the resulting curve. IC50 was determined by plotting inhibitor concentration v. ATPase rate.

Chain of BTK (Q06187 whole entry, the tested form may be a part): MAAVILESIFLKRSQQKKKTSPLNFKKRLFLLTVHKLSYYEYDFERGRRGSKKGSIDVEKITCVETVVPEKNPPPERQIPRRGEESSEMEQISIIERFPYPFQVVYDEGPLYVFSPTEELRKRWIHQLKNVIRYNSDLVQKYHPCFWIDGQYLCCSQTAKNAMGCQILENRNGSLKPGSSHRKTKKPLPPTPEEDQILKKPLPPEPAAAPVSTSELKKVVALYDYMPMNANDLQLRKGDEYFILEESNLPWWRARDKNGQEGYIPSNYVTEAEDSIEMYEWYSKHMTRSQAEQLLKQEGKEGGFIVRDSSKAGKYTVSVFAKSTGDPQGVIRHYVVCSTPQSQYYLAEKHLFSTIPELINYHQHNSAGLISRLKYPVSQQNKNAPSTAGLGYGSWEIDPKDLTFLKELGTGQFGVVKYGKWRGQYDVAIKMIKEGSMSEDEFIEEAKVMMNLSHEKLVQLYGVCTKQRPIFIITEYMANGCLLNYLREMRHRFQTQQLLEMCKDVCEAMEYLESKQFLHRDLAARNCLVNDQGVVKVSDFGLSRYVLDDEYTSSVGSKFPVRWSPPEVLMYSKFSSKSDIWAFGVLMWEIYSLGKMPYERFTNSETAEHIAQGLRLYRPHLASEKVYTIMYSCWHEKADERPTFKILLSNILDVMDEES

SMILES | Kd (BTK) | Kd (CDK1) | IC50 (KIF11) | also measured
NC(=O)c1c(F)cccc1Nc1nc(Nc2ccc(S(=O)(=O)NCCOCCOC/C=C/C(=O)N3CCC[C@@H](n4nc(-c5ccc(Oc6ccccc6)cc5)c5c(N)ncnc54)C3)cc2)ncc1Br [Compound I-13, 2-[[2-[4-[2-[2-[(E)-4-[(3R)-3-[4-amino-3-(4-phenoxyphenyl)pyrazolo[3,4-d]pyrimidin-1-yl]-1-piperidyl]-4-oxo-but-2-enoxy]ethoxy]ethylsulfamoyl]anilino]-5-bromo-pyrimidin-4-yl]amino]-6-fluoro-benzamide] | 50 to 500 nM | 500 to 2500 nM |  | 
NC(=O)c1c(F)cccc1Nc1nc(Nc2ccc(S(=O)(=O)NCCOCCOCCOCCOCCOCCOC/C=C/C(=O)N3CCC[C@@H](n4nc(-c5ccc(Oc6ccccc6)cc5)c5c(N)ncnc54)C3)cc2)ncc1Br [Compound I-15] | < 50 nM | 50 to 500 nM |  | 
CN(C/C=C/C(=O)N1CCC[C@@H](n2nc(-c3ccc(Oc4ccccc4)cc3)c3c(N)ncnc32)C1)CCCN1CCN(CCCNS(=O)(=O)c2ccc(Nc3ncc(Br)c(Nc4cccc(F)c4C(N)=O)n3)cc2)CC1 [Compound I-18, 2-[[2-[4-[3-[4-[3-[[(E)-4-[(3R)-3-[4-amino-3-(4-phenoxyphenyl)pyrazolo[3,4-d]pyrimidin-1-yl]-1-piperidyl]-4-oxo-but-2-enyl]-methyl-amino]propyl]piperazin-1-yl]propylsulfamoyl]anilino]-5-bromo-pyrimidin-4-yl]amino]-6-fluoro-benzamide] | < 50 nM | < 50 nM |  | 
Cc1sc2c(c1C)C(c1ccc(Cl)cc1)=N[C@@H](CC(=O)NCCOCCOCCOCCOCCOCCOCCOc1ccc(C(=O)NC3C(C)(C)C(Oc4ccc(C#N)c(Cl)c4)C3(C)C)cc1)c1nnc(C)n1-2 (stereo partly shown) [Compound I-34] |  |  |  | Kd (androgen receptor): < 50 nM; Kd (BRD4-BD1): 50 to 500 nM; Kd (BRD4-BD2): 50 to 500 nM
CCC1C(=O)N(C)c2cnc(Nc3ccc(C(=O)NCCN(C)C(=O)CO[C@H]4CC[C@H]5[C@@H]6CC[C@H]7CC(=O)CC[C@]7(C)[C@H]6CC[C@]45C)cc3OC)nc2N1C1CCCC1 (stereo partly shown) [Compound I-41] |  |  |  | Kd (PLK1): < 50 nM
CCc1cnn2c(NCc3ccc(OCCOCCOCCOCCOCCN(C)C/C=C/C(=O)N4CCC[C@@H](n5nc(-c6ccc(Oc7ccccc7)cc6)c6c(N)ncnc65)C4)nc3)cc(N3CCCC[C@H]3CCO)nc12 [Compound I-43] | < 50 nM | > 2500 nM |  | 
CN(OCCOCCOCCOCCOCCOC/C=C/C(=O)N1CCC[C@@H](n2nc(-c3ccc(Oc4ccccc4)cc3)c3c(N)ncnc32)C1)C(=O)N1N=C(c2cc(F)ccc2F)SC1(CCCN)c1ccccc1 (stereo partly shown) [Compound I-49] |  |  | 50 to 500 nM | 
CN(C/C=C/C(=O)N1CCC[C@@H](n2nc(-c3ccc(Oc4ccccc4)cc3)c3c(N)ncnc32)C1)CCOCCOCCOCCOCCON(C)C(=O)N1N=C(c2cc(F)ccc2F)SC1(CCCN)c1ccccc1 (stereo partly shown) [Compound I-50] |  |  | < 50 nM | 

Now from value to molecule, other results behind:

Kd (BTK) | Kd (CDK1) | IC50 (KIF11) | SMILES | also measured
< 50 nM |  | < 50 nM | CN(C/C=C/C(=O)N1CCC[C@@H](n2nc(-c3ccc(Oc4ccccc4)cc3)c3c(N)ncnc32)C1)CCOCCOCCOCCOCCOCCOCCON(C)C(=O)N1N=C(c2cc(F)ccc2F)SC1(CCCN)c1ccccc1 (stereo partly shown) [Compound I-52] | 
< 50 nM |  | 50 to 500 nM | CN(OCCOCCOCCOCCOCCOCCOCCOCCOCCOC/C=C/C(=O)N1CCC[C@@H](n2nc(-c3ccc(Oc4ccccc4)cc3)c3c(N)ncnc32)C1)C(=O)N1N=C(c2cc(F)ccc2F)SC1(CCCN)c1ccccc1 (stereo partly shown) [Compound I-53] | 
 |  | < 50 nM | CN(C/C=C/C(=O)N1CCC[C@@H](n2nc(-c3ccc(Oc4ccccc4)cc3)c3c(N)ncnc32)C1)CCOCCOCCOCCOCCOCCOCCOCCOCCON(C)C(=O)N1N=C(c2cc(F)ccc2F)SC1(CCCN)c1ccccc1 (stereo partly shown) [Compound I-54] | 

Reference: patent US20250136619A1, “HETEROBIFUNCTIONAL COMPOUNDS AND THEIR USE IN TREATING DISEASE” (HALDA THERAPEUTICS OPCO, INC., priority 2021, published 2025)
